“And” between values parts separate entries of the source, which are not always exact repeats. Equal values may be shown once. “Also recorded” adds a separate entry of the source.
What was measured:
[1] = target: T1, C. neoformans Sgl1 (Cryptococcus neoformans var. grubii, UniProt J9W473); assay: Enzymatic evaluation of C. neoformans Sgl1 against the fungal glucosylceramide (LC-MS); type: biochemical; details: 10 μg substrate, 10 or 50 μg Sgl1, pH 5.5, 37 °C, 4 h
Experimental: (§1) To verify the enzymatic activity of C. neoformans Sgl1 against the fungal long-chain glucosylceramide (GlcCer, OH-Δ8,9-methyl-glucosylceramide), kindly provided by Khojin (Japan). The reactions used 10 μg of substrate and 10 or 50 μg of C. neoformans Sgl1 or cerezyme (Genzyme Corporation, Cambridge, MA, USA) in 100 μL acetate buffer pH 5.5 incubated at 37 °C for 4 h[11]. The reaction was terminated by adding 300 μL of chloroform/methanol (1:1 ratio) and the lower phase was collected and dried. 9-Methyl-ceramide production was monitored by liquid chromatography-mass spectrometry (LC-MS).

[2] = tested on: human lung epithelial cancer cell line A549; details: A549 cells, 24 h, MTT
Experimental: The cells were maintained in Dulbecco’s modified eagle medium containing 10% fetal bovine serum and 1% penicillin–streptomycin. At passage 11, 10^5 cells were transferred into each well of 96-well plates and cultured for 18–24 h for the cells to adhere to the well surface. After, the medium was removed and a fresh medium containing the selected compounds at a concentration range of 1–512 μM were added to the wells. Controls with equivalent serial concentrations of DMSO were also evaluated and compared with a control without DMSO. The plate was incubated at 37 °C with 5% CO2. After 24 h, the supernatant was removed and 50 μL of 5 mg/mL 3-(4,5-dimethylthiazol-2-yl)-2,5-diphenyltetrazoliumbromide (MTT) solution in phosphate-buffered saline (PBS) was added to each well. The plates were incubated for an additional 4 h and the formazan crystals formed inside the cell was dissolved by adding 50 μL DMSO.

[3] = target: T1, C. neoformans Sgl1; assay: Sgl1 inhibition with res-glp substrate (HTS, single-compound dose-response); type: biochemical; details: res-glp as substrate (100 µM), primary screen; read-out: IC50 against Sgl1
Experimental: Resorufin-3β-D-glucopyranoside (res-glp, Sigma-Aldrich) enzyme kinetic assays were performed according to methods described by Urban et al.[16] with modifications. Reaction buffer contained 50 mM citric acid, 176 mM K2HPO4, pH 6, 0.01% Tween-20, and 10 mM sodium taurocholate. The reactions were carried out in black 96-well plates using 20 ng of enzyme with 100 μM res-glp substrate. In all, 10 μL/well of res-glp substrate was added to each well and the reaction was initiated by adding 20 μL enzyme (20 ng). After incubation at 37 °C for 30–40 min, the fluorescence was read at an excitation of 570 (±10) nm and an emission of 610 (±10) nm on a VersaMax™ Microplate Reader from Molecular Devices. A standard curve was prepared with serial dilutions of the free fluorophore, resorufin, in the same volume of assay buffer.
A ChemBridge DIVERSet-CL library (San Diego, CA) containing 50,000 compounds was screened to identify small molecules that inhibit C. neoformans Sgl1. The library was prepared in a 96-well plate format containing a cocktail of 10 compounds per well at 1 mM each in 100% DMSO. The cocktail plates were first diluted to 100 μM each (1:10 dilution in Dulbecco’s phosphate-buffered saline, DPBS) resulting in 10% DMSO. In order to screen the compound cocktails at […] in 1% DMSO in a final reaction volume of 30 μL an aliquot of 3 μL was added to 17 μL of buffer containing 20 ng of enzyme and the reaction was started adding 10 μL of 100 μM res-glp. A negative control without enzyme and positive controls with and without DMSO were prepared. The plates were incubated at 37 °C for 40 min.
The Z′-factor was used for the assessment of the efficiency of the HTS assay for each individual plate. Values greater than 0.5 has been considered as an indicator of an excellent screening assay quality.

[4] = tested on: C. neoformans H99; type: in vivo, Cryptococcus neoformans; details: Hit 1 intranasally, fluconazole intraperitoneally
Experimental: For animal studies, 4-week-old CBA/J (Envigo) female mice were used. Mouse experiments were performed in full compliance with a protocol approved by Stony Brook University (IACUC number 341588) and in compliance with the United States Animal Welfare Act (Public Law 98–198). The experiments were carried out in facilities accredited by the Association for Assessment and Accreditation of Laboratory Animal Care. Mice were divided into sets of 12 mice for each treatment or control group (4 animals per cage) kept in an animal room (temperature, 22–24 °C; relative humidity, 35–45%) with artificial 12–12 h dark/light cycle. For the experiment with intraperitoneal (i.p.) treatment, mice were infected intranasally with 10 µL of a suspension containing 1 × 10^6 C. neoformans H99 cells and subsequently treated through i.p. injection with 10 mg/kg/day of hit 1 in a final volume of 100 µL of vehicle containing 10% PEG 200 in PBS. The untreated animals received 100 µL of vehicle. For the experiment with intranasal (i.n.) treatment, mice were infected with 1 × 10^5 C. neoformans H99 cells and received i.n. treatment with hit 1 in a final volume of 10 µL. Another group received treatment with 10 mg/kg/day of fluconazole i.p. and a third group received the combined treatment of hit1 by i.n. and fluconazole by i.p. Animals receiving only vehicle i.n. were used as a control group. In both experiments, three mice of each group were euthanized at day 3, 6, 9, and 14 post infection for CFU recovery from lungs and CFU recovery from brain on day 14.

[5] = Hydrolysis of fungal long-chain glucosylceramide by cerezyme (9-methyl-ceramide by LC-MS); type: biochemical; details: 4 h; for 9-methyl ceramide: 10 μg fungal GlcCer, 37 °C
Experimental: as §1

T1 sequence (J9W473 entry or part of it): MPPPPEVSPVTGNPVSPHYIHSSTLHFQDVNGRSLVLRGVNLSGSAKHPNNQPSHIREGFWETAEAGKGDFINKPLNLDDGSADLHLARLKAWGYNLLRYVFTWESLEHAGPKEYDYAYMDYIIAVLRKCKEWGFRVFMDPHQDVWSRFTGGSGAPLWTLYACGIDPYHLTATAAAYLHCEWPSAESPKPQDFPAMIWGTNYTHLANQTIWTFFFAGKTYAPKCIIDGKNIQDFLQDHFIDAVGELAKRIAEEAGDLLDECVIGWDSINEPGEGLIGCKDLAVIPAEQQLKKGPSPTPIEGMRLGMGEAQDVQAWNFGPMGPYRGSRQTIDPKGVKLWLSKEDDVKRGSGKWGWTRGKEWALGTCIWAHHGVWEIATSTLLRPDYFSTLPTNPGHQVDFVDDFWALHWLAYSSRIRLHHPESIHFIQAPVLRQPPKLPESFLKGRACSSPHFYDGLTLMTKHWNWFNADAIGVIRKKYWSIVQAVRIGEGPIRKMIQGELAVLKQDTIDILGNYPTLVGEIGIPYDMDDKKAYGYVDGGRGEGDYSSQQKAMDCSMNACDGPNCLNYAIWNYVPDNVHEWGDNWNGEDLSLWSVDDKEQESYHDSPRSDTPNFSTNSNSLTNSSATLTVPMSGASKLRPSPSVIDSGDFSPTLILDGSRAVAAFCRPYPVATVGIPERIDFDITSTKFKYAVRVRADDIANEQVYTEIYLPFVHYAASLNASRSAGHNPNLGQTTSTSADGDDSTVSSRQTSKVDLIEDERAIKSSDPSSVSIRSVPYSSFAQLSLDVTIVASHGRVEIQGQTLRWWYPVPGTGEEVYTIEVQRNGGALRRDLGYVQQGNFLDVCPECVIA

CCCCCCCCCCCCCCCCC(O)C(=O)NC(COC1OC(CO)C(O)C(O)C1O)C(O)C=CCCC=C(C)CCCCCCCCC (centres unmarked) [fungal glucosylceramide, OH-Δ8,9-methyl-glucosylceramide]
hydrolysis by Sgl1 [1]: unable to detect hydrolysis

CN1C[C@H](Nc2nc(C(C)(C)C)nc3c2cnn3C)C[C@H]1CO [Hit 14]
LD50 (lethal dose 50) [2]: 357 µM
IC50 [3]: 1 µM

OC(Cn1cncn1)(Cn1cncn1)c1ccc(F)cc1F [Fluconazole, fluconazole, reference compound]
lung CFU compared to vehicle ([4]; 14 days of treatment): significant difference among CFU recovered from the lungs; also recorded: slightly reduced lung CFU
brain dissemination / CFU recovered from the brain ([4]; 14 days): did not prevent C. neoformans brain dissemination
Lung (CFU/mL) ([4]; day 6 post infection, 10 mg/kg/day each, 10 mg/kg/day): 60000 CFU/mL and 120000 CFU/mL and 92000 CFU/mL

CN1C[C@H](NS(=O)(=O)c2cc(Cl)ccc2Cl)C[C@H]1CO [Hit 13]
LD50 (lethal dose 50) [2]: 217.3 µM
IC50 [3]: 2 µM

B1: Cerezyme: recombinant human glucosylceramidase (Genzyme Corporation) (protein, chains of the INN, looked up)
chain: ARPCIPKSFGYSSVVCVCNATYCDSFDPPTFPALGTFSRYESTRSGRRMELSMGPIQANHTGTGLLLTLQPEQKFQKVKGFGGAMTDAAALNILALSPPAQNLLLKSYFSEEGIGYNIIRVPMASCDFSIRTYTYADTPDDFQLHNFSLPEEDTKLKIPLIHRALQLAQRPVSLLASPWTSPTWLKTNGAVNGKGSLKGQPGDIYHQTWARYFVKFLDAYAEHKLQFWAVTAENEPSAGLLSGYPFQCLGFTPEHQRDFIARDLGPTLANSTHHNVRLLMLDDQRLLLPHWAKVVLTDPEAAKYVHGIAVHWYLDFLAPAKATLGETHRLFPNTMLFASEACVGSKFWEQSVRLGSWDRGMQYSHSIITNLLYHVVGWTDWNLALNPEGGPNWVRNFVDSPIIVDITKDTFYKQPMFYHLGHFSKFIPEGSQRVGLVASQKNDLDAVALMHPDGSAVVVVLNRSSKDVPLTIKDPAVGFLETISPGYSIHTYLWHRQ
9-methyl ceramide ([5]; Cerezyme 10 μg): 221.543 pmol/mL and 250.417 pmol/mL and 226.634 pmol/mL and 267.483 pmol/mL
9-methyl ceramide ([5]; Cerezyme 50 g (so in the source)): 243.428 pmol/mL and 279.737 pmol/mL and 384.828 pmol/mL and 393.256 pmol/mL
hydrolysis of fungal glucosylceramide ([5]; positive control, pH 5.5, 37 °C): readily hydrolyzed fungal glucosylceramide

— publication PMC8497620, “Structure and inhibition of Cryptococcus neoformans sterylglucosidase to develop antifungal agents” (Nature Communications, 2021)
